Experimental data taken from ChEMBL document CHEMBL1201862, “PubChem BioAssay data set” (2004).
Active and inactive are the calls of the source.

Tests used:
[1] = cells
[2] = tested on: Vero; assay: inhibition of WNV-induced cytopathic effect – cell-based, CPE readout (AID 1621); type: functional; conditions: Chlorocebus sabaeus
[3] = HEK-293T viability loss after treatment – luminescence, T-cell screen hits, cytotoxicity control for TCR NF-kB inhibitor project, dose response (AID 489026); type: functional, cell-based;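 further: cells exposed to compound about 14 hours before the viability readout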
[4] = viability of uninfected HEp-2 cells – cell-based, HTS, cytotoxicity control for RSV inhibitor project, dose response (AID 2410); type: functional; conditions: human respiratory syncytial virus
[5] = molecular target: T1, NADPH oxidase 1 (Homo sapiens, UniProt Q9Y5S8); assay: Late-stage luminescence-based cell-based dose response assay to identify inhibitors of NADPH oxidase 1 (NOX1): Purchased analogs 2.; type: functional
T1 sequence (Q9Y5S8 whole entry): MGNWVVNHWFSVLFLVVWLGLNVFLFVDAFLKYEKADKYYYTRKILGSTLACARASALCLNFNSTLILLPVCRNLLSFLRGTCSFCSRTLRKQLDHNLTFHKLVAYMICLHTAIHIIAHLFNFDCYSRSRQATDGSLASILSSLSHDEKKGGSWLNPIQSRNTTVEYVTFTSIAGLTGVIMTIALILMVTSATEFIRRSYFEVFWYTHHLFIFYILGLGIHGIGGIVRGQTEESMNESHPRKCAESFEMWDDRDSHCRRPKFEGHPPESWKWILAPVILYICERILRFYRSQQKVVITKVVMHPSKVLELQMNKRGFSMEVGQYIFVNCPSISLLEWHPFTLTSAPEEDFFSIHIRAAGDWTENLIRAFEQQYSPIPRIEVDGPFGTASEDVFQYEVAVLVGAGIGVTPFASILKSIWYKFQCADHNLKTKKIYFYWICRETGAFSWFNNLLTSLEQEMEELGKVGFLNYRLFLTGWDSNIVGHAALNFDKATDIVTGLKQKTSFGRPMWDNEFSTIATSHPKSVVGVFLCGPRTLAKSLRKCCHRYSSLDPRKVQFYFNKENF

[6] = HIV-1 Vif–A3G interaction blockers – biochemical, TR-FRET, GST-Vif 1-94, biotin-A3G peptide, dose response retest, primary screen (AID 1117319); type: functional;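 further: TR-FRET signal of purified GST-Vif binding a biotinylated A3G peptide; inhibitors lower the FRET signal by blocking Vif and A3G binding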
[7] = molecular target: Large T antigen (Simian virus 40, UniProt P03070); type: functional, Betapolyomavirus macacae;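 further: Confirmatory-stage PubChem screen for compounds that inhibit SV40 T antigen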
[8] = molecular target: T2, Mannose-6-phosphate isomerase (Homo sapiens, UniProt P34949); assay: MPI inhibition at elevated mannose 6-phosphate – biochemical, fluorescence intensity, high mannose 6-phosphate, primary screen (AID 1220)
T2 sequence (P34949 whole entry): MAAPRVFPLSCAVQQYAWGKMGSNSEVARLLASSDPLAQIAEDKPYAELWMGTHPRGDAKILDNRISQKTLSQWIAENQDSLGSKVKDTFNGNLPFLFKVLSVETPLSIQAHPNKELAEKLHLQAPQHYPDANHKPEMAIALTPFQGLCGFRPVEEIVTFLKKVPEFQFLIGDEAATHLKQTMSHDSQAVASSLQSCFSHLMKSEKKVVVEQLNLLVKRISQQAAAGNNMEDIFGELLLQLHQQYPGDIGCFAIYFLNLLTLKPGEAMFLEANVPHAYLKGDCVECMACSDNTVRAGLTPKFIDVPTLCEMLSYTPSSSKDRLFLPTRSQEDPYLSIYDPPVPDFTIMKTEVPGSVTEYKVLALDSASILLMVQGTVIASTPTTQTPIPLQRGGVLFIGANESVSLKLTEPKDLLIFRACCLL

[9] = viability loss in Vero cells – cytotoxicity control for Vif-APOBEC3G degradation inhibitor project, dose response (AID 1117358); type: functional; conditions: Vero
[10] = molecular target: T2, Mannose-6-phosphate isomerase; assay: MPI enzyme activity inhibition – biochemical, fluorescence intensity, coupled assay, primary screen (AID 1209)
[11] = microbe, parasite or virus in culture; type: functional; conditions: Mycobacterium tuberculosis
[12] = A High Throughput Confirmatory Assay used to Identify Novel Compounds that Inhibit Mycobacterium Tuberculosis in the absence of Glycerol.; type: functional
[13] = molecular target: Protein-tyrosine kinase 2-beta (Homo sapiens, UniProt Q14289);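 further: potency of inhibitors of PYK2 kinase phosphorylation of poly-GT substrate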
[14] = molecular target: T3, Long-chain-fatty-acid--AMP ligase FadD28 (Mycobacterium tuberculosis, UniProt P9WQ59); assay: Fluorescence polarization aasay to screen for inhibitors that compete for the binding of FadD28 to a bisubstrate Measured in Biochemical System Using Plate Reader - 2147-01_Inhibitor_Dose_CherryPick_Activity.; type: functional, Mycobacterium tuberculosis H37Rv
T3 sequence (P9WQ59 whole entry): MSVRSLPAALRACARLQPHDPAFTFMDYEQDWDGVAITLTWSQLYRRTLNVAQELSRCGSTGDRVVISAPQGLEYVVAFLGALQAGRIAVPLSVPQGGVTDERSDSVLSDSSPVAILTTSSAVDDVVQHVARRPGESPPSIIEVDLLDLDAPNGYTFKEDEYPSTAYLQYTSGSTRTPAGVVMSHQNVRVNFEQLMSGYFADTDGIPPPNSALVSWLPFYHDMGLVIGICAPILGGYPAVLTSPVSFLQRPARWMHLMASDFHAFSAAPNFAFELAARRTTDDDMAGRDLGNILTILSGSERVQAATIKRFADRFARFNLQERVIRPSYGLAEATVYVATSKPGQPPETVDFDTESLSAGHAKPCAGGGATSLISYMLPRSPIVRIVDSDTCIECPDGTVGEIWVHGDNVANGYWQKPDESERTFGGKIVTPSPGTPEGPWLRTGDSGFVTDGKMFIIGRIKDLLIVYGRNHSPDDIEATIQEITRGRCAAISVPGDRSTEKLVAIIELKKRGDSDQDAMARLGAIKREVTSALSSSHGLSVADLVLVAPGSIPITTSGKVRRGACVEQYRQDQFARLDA

[15] = molecular target: Potassium voltage-gated channel subfamily KQT member 2 (Rattus norvegicus, UniProt O88943, W236L); assay: potentiation of rat KCNQ2 current – cell-based, automated electrophysiology, mechanism study for KCNQ2 potentiator project, dose response (AID 2603); type: functional
Potassium voltage-gated channel subfamily KQT member 2, sequence (O88943 whole entry W236L): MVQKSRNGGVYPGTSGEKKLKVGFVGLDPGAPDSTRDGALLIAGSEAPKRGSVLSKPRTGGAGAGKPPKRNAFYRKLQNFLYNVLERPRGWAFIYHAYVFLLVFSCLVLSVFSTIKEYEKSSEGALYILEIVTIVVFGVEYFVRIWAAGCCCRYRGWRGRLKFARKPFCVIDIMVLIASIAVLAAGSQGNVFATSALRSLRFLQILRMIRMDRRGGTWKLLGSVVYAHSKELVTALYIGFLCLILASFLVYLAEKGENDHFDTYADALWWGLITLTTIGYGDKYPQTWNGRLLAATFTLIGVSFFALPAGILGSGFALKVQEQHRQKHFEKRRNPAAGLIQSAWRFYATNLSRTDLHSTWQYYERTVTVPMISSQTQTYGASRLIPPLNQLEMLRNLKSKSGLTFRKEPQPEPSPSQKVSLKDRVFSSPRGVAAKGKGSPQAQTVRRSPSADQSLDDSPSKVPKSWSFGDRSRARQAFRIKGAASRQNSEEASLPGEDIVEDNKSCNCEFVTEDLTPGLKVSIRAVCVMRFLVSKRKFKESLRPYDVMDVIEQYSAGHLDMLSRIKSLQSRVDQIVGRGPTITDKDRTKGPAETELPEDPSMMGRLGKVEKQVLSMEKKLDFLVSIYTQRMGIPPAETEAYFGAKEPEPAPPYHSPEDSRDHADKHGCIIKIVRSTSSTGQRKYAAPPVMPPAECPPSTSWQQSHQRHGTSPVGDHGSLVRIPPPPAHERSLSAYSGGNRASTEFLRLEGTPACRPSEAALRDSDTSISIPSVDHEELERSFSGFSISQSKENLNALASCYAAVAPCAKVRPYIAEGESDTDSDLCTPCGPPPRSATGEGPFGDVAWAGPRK

Protein-tyrosine kinase 2-beta, sequence (Q14289 whole entry): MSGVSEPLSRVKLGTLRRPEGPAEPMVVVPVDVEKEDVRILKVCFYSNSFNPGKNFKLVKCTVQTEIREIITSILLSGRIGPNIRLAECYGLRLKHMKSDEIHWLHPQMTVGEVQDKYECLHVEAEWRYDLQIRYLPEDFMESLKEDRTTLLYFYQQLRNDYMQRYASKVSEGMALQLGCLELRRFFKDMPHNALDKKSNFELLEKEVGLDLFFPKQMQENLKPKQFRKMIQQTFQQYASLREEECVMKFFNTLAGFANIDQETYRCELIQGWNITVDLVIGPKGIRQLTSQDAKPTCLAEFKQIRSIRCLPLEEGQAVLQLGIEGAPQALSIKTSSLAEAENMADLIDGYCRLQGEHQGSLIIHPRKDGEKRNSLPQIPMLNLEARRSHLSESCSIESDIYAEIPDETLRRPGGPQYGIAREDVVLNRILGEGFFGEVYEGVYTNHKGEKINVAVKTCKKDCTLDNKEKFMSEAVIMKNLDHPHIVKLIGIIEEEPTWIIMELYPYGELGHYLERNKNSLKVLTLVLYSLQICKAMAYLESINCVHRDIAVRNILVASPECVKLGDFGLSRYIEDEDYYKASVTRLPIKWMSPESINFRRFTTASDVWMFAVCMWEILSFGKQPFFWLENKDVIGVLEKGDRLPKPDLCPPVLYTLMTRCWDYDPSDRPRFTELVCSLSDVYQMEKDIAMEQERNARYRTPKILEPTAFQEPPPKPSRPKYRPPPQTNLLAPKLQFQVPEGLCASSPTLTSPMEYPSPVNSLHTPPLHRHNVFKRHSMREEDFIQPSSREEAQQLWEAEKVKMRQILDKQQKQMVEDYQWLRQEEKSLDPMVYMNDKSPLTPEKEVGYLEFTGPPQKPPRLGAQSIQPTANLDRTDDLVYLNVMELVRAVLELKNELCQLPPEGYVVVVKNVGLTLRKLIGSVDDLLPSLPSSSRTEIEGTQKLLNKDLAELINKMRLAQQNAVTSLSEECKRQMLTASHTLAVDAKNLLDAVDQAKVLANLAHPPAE
Large T antigen, sequence (P03070 whole entry): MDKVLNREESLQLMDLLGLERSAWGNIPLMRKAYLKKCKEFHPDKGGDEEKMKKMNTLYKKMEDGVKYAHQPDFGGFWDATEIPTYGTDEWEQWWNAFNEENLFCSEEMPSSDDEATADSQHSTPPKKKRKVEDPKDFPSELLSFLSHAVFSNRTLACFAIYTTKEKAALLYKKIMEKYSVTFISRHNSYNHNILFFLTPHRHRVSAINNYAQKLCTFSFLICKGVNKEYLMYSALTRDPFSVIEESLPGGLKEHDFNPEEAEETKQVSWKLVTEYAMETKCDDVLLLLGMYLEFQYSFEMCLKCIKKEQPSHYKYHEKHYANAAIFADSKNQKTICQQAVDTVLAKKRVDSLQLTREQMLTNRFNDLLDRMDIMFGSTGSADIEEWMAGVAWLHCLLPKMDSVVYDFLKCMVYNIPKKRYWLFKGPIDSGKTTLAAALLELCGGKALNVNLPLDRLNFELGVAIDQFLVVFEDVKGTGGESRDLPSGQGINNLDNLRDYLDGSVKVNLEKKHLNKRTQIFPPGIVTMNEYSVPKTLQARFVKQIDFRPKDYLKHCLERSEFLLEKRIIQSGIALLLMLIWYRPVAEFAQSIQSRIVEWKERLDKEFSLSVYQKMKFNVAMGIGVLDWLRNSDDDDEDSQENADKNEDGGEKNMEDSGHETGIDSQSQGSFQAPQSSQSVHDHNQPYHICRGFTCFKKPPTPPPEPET

With `CC(C)c1oc(=O)cc2c1[C@@H](O)[C@H]1OC(=O)[C@@]3(C)CC[C@@H](O)[C@@]2(C)C13` (stereo not given in full) as the molecule, how does the IC50 [1] read?
The IC50 was 12.2 µM (active).

And the IC50 [2]?
Its IC50 is 17.4 µM (active).

What about the IC50 [3] of the same molecule?
Its IC50 is > 80 µM (inactive).

And the CC50 [4]?
Its CC50 is 10.4 µM (active).

Which IC50 [5] does the source give for `CC=C(NNc1c(Cl)c(Cl)nc(C(=O)O)c1Cl)c1ccccc1` here?
Its IC50 is > 17 µM (not active).

Which results are given for `Oc1ccc(/C=N/NP(=S)(c2ccccc2)c2ccccc2)cc1O`?
IC50 [6]: > 100 µM (active); IC50 [7]: 54.9 µM (active); IC50 [8]: > 50 µM (not active); CC50 [9]: > 40 µM (active); IC50 [10]: > 50 µM (not active)

Which CC50 [11] does the source give for `C#CCOc1ccc2c(c1)c(C(C)=O)c(C)n2Cc1ccccc1` here?
The CC50 was > 40 µM (active).

What about the IC50 [12] of the same molecule?
The IC50 was > 100 µM (active).

Which IC50 [13] does the source give for `Clc1ccc2[nH]cc(-c3nnnn3-c3ccccc3)c2c1` here?
Its IC50 is > 69.5 µM (not active).

With `CC(C)n1c(O)c(N=Nc2ccc(Cl)c(C(=O)O)c2)c2ccccc21` as the molecule, how does the AC50 [14] read?
Its AC50 is 35.7 µM (active).

And the EC50 [15]?
Its EC50 is 3.7 µM (active).
